Test: xn = mol fraction of the nth substance listed
Details: 100 kPa

O=C[C@H](O)[C@@H](O)[C@H](O)[C@H](O)CO + CC(=O)[O-].CC[n+]1ccn(C)c1
viscosity [mPa·s]
Details	x1 = 0.0095	x1 = 0.0284	x1 = 0.0474	x1 = 0.095	x1 = 0.1429
282.5 K	–	–	756	2299	–
283.3 K	–	–	–	–	7397
292.4 K	185	245	339	870	–
293.3 K	–	–	–	–	2397
302.1 K	–	–	–	–	921
303 K	100	123	165	380	–
312.5 K	61	73	97	193	–
322.6 K	38	45	58	111	207
332.2 K	28	32	39	68	–
341.3 K	–	23	–	47	–
342.5 K	20	–	29	–	77
352.1 K	15	18	21	34	53
362.3 K	13	14	16	24	38
371.7 K	11	12	13	–	28

OC[C@H]1O[C@@H](O[C@H]2[C@H](O)[C@@H](O)C(O)O[C@@H]2CO)[C@H](O)[C@@H](O)[C@@H]1O (stereo partly specified) + CC(=O)[O-].CC[n+]1ccn(C)c1
viscosity [mPa·s]
Details	x1 = 0.005	x1 = 0.0151	x1 = 0.0255	x1 = 0.0524	x1 = 0.0807
282.5 K	407	517	756	2299	–
283.3 K	–	–	–	–	7397
292.4 K	185	245	–	870	–
293.3 K	–	–	–	–	2397
303 K	100	123	165	380	–
312.5 K	–	–	97	193	419
322.6 K	38	–	58	111	–
332.2 K	28	32	–	68	–
341.3 K	–	23	–	47	–
342.5 K	–	–	29	–	77
352.1 K	15	18	21	34	53
362.3 K	13	14	16	24	38
371.7 K	11	12	13	–	28
373.1 K	–	–	–	19	–

Reference: a compilation of properties of binary mixtures (doi:10.1021/acs.jpcb.8b06939)
